# Results taken from ChEMBL document CHEMBL3885881, “DrugMatrix”.
# Species: Rattus norvegicus
# Assay: DrugMatrix - Regimen: Daily Repeat
# Assay type: toxicity, organism-based, Sprague-Dawley
# Parameters: regimen Daily Repeat, gender Male, age 6-8 weeks
# Details: in vivo, po, route oral GAVAGE, vehicle .5 % CMC; for ABSOLUTE BASOPHIL / ABSOLUTE EOSINOPHIL / ABSOLUTE LYMPHOCYTE / ABSOLUTE MONOCYTE / ABSOLUTE SEGMENTED NEUTROPHIL / BASOPHIL / EOSINOPHIL / ERYTHROCYTE COUNT / HEMATOCRIT / HEMOGLOBIN / LEUKOCYTE COUNT / LYMPHOCYTE / MEAN CORPUSCULAR HEMOGLOBIN / MEAN CORPUSCULAR HEMOGLOBIN CONCENTRATION / MEAN CORPUSCULAR VOLUME / MONOCYTE / NEUTROPHIL / NUCLEATED RED BLOOD CELLS / PLATELET COUNT: tissue Blood; for ALANINE AMINOTRANSFERASE / ALBUMIN / ALKALINE PHOSPHATASE / ASPARTATE AMINOTRANSFERASE / BLOOD UREA NITROGEN / CARBON DIOXIDE / CHLORIDE / CHOLESTEROL / CREATINE PHOSPHOKINASE / CREATININE / GLUCOSE / LACTATE DEHYDROGENASE / LIPASE / PHOSPHORUS / POTASSIUM / SODIUM / TOTAL BILIRUBIN / TOTAL PROTEIN / URIC ACID: tissue Plasma
# [1] = 50 mg/kg, 120 h, dose level Low, time 5 day
# [2] = 2500 mg/kg, 72 h, dose level High, time 3 day
# [3] = 2500 mg/kg, 120 h, dose level High, time 5 day
smiles,measurement,setting,value
CC(=O)O[C@]1(C(C)=O)CC[C@H]2[C@@H]3C=C(Cl)C4=CC(=O)[C@@H]5C[C@@H]5[C@]4(C)[C@H]3CC[C@@]21C [CYPROTERONE ACETATE],ABSOLUTE BASOPHIL,[1],0 CELLS/uL
same,ABSOLUTE EOSINOPHIL,[1],24.33 CELLS/uL
same,ABSOLUTE LYMPHOCYTE,[1],7928 CELLS/uL
same,ABSOLUTE MONOCYTE,[1],144 CELLS/uL
same,ABSOLUTE SEGMENTED NEUTROPHIL,[1],637 CELLS/uL
same,BASOPHIL,[1],0%
same,EOSINOPHIL,[1],0.33%
same,ERYTHROCYTE COUNT,[1],5.93 x10E6/uL
same,HEMATOCRIT,[1],37.07%
same,HEMOGLOBIN,[1],14.9 G/DL
same,LEUKOCYTE COUNT,[1],8.73 x10E3/uL
same,LYMPHOCYTE,[1],90.33%
same,MEAN CORPUSCULAR HEMOGLOBIN,[1],25.13 pg
same,MEAN CORPUSCULAR HEMOGLOBIN CONCENTRATION,[1],40.23 G/DL
same,MEAN CORPUSCULAR VOLUME,[1],62.47 fL
same,MONOCYTE,[1],1.67%
same,NEUTROPHIL,[1],7.67%
same,NUCLEATED RED BLOOD CELLS,[1],0 /100WBC
same,PLATELET COUNT,[1],1115.67 x10E3/uL
same,ALANINE AMINOTRANSFERASE,[1],68.33 u/L
same,ALBUMIN,[1],4.4 G/DL
same,ALKALINE PHOSPHATASE,[1],339 u/L
same,ASPARTATE AMINOTRANSFERASE,[1],88 u/L
same,BLOOD UREA NITROGEN,[1],15.67 mg/dL
same,CARBON DIOXIDE,[1],30.33 mmol/L
same,CHLORIDE,[1],101 MEQ/L
same,CHOLESTEROL,[1],79 mg/dL
same,CREATINE PHOSPHOKINASE,[1],291 u/L
same,CREATININE,[1],0.18 mg/dL
same,GLUCOSE,[1],165 mg/dL
same,LACTATE DEHYDROGENASE,[1],169 u/L
same,LIPASE,[1],11 u/L
same,PHOSPHORUS,[1],12.3 mg/dL
same,POTASSIUM,[1],5.54 MEQ/L
same,SODIUM,[1],144.17 MEQ/L
same,TOTAL BILIRUBIN,[1],0.13 mg/dL
same,TOTAL PROTEIN,[1],6.5 G/DL
same,URIC ACID,[1],1.33 mg/dL
same,ABSOLUTE BASOPHIL,[2],0 CELLS/uL
same,ABSOLUTE EOSINOPHIL,[2],156.67 CELLS/uL
same,ABSOLUTE LYMPHOCYTE,[2],10772 CELLS/uL
same,ABSOLUTE MONOCYTE,[2],88.67 CELLS/uL
same,ABSOLUTE SEGMENTED NEUTROPHIL,[2],1249.33 CELLS/uL
same,BASOPHIL,[2],0%
same,EOSINOPHIL,[2],1.33%
same,ERYTHROCYTE COUNT,[2],5.59 x10E6/uL
same,HEMATOCRIT,[2],36.7%
same,HEMOGLOBIN,[2],14.03 G/DL
same,LEUKOCYTE COUNT,[2],12.27 x10E3/uL
same,LYMPHOCYTE,[2],88%
same,MEAN CORPUSCULAR HEMOGLOBIN,[2],25.07 pg
same,MEAN CORPUSCULAR HEMOGLOBIN CONCENTRATION,[2],38.23 G/DL
same,MEAN CORPUSCULAR VOLUME,[2],65.63 fL
same,MONOCYTE,[2],0.67%
same,NEUTROPHIL,[2],10%
same,NUCLEATED RED BLOOD CELLS,[2],0.33 /100WBC
same,PLATELET COUNT,[2],1080.33 x10E3/uL
same,ALANINE AMINOTRANSFERASE,[2],69.67 u/L
same,ALBUMIN,[2],4.07 G/DL
same,ALKALINE PHOSPHATASE,[2],424.67 u/L
same,ASPARTATE AMINOTRANSFERASE,[2],99.67 u/L
same,BLOOD UREA NITROGEN,[2],14.33 mg/dL
same,CARBON DIOXIDE,[2],30 mmol/L
same,CHLORIDE,[2],100.67 MEQ/L
same,CHOLESTEROL,[2],113.33 mg/dL
same,CREATINE PHOSPHOKINASE,[2],639.67 u/L
same,CREATININE,[2],0.2 mg/dL
same,GLUCOSE,[2],151.33 mg/dL
same,LACTATE DEHYDROGENASE,[2],603.33 u/L
same,LIPASE,[2],12.67 u/L
same,PHOSPHORUS,[2],11.2 mg/dL
same,POTASSIUM,[2],6.3 MEQ/L
same,SODIUM,[2],141.73 MEQ/L
same,TOTAL BILIRUBIN,[2],0.13 mg/dL
same,TOTAL PROTEIN,[2],6 G/DL
same,URIC ACID,[2],0.83 mg/dL
same,ABSOLUTE BASOPHIL,[3],0 CELLS/uL
same,ABSOLUTE EOSINOPHIL,[3],62.33 CELLS/uL
same,ABSOLUTE LYMPHOCYTE,[3],8852.33 CELLS/uL
same,ABSOLUTE MONOCYTE,[3],146.33 CELLS/uL
same,ABSOLUTE SEGMENTED NEUTROPHIL,[3],2339 CELLS/uL
same,BASOPHIL,[3],0%
same,EOSINOPHIL,[3],0.67%
same,ERYTHROCYTE COUNT,[3],5.55 x10E6/uL
same,HEMATOCRIT,[3],34.3%
same,HEMOGLOBIN,[3],13.77 G/DL
same,LEUKOCYTE COUNT,[3],11.4 x10E3/uL
same,LYMPHOCYTE,[3],80%
same,MEAN CORPUSCULAR HEMOGLOBIN,[3],24.8 pg
same,MEAN CORPUSCULAR HEMOGLOBIN CONCENTRATION,[3],40.13 G/DL
same,MEAN CORPUSCULAR VOLUME,[3],61.87 fL
same,MONOCYTE,[3],1.33%
same,NEUTROPHIL,[3],18%
same,NUCLEATED RED BLOOD CELLS,[3],0.33 /100WBC
same,PLATELET COUNT,[3],1381.33 x10E3/uL
same,ALANINE AMINOTRANSFERASE,[3],94 u/L
same,ALBUMIN,[3],4.3 G/DL
same,ALKALINE PHOSPHATASE,[3],317.67 u/L
same,ASPARTATE AMINOTRANSFERASE,[3],101.67 u/L
same,BLOOD UREA NITROGEN,[3],21.33 mg/dL
same,CARBON DIOXIDE,[3],23.67 mmol/L
same,CHLORIDE,[3],98.67 MEQ/L
same,CHOLESTEROL,[3],98.67 mg/dL
same,CREATINE PHOSPHOKINASE,[3],467 u/L
same,CREATININE,[3],0.27 mg/dL
same,GLUCOSE,[3],223 mg/dL
same,LACTATE DEHYDROGENASE,[3],496 u/L
same,LIPASE,[3],10.67 u/L
same,PHOSPHORUS,[3],12.8 mg/dL
same,POTASSIUM,[3],6.34 MEQ/L
same,SODIUM,[3],142.07 MEQ/L
same,TOTAL BILIRUBIN,[3],0.17 mg/dL
same,TOTAL PROTEIN,[3],7 G/DL
same,URIC ACID,[3],2.1 mg/dL
